Results from article PMC7180622, “PET Imaging of the Adenosine A2A Receptor in the Rotenone-Based Mouse Model of Parkinson’s Disease with [^18F]FESCH Synthesized by a Simplified Two-Step One-Pot Radiolabeling Strategy” (Molecules, 2020).

Key:
[1] = target: T1, adenosine A2A receptor (hA2AR) (Homo sapiens, UniProt P29274); assay: radioligand displacement with [3H]ZM241385; format: binding
T1 construct: gene ADORA2A; membrane homogenates of stably transfected CHO-K1 cells

[2] = target: T2, adenosine A1 receptor (hA1R) (Homo sapiens, UniProt P30542); assay: radioligand displacement with [3H]DPCPX; format: binding
T2 construct: gene ADORA1; membrane homogenates of stably transfected CHO-K1 cells
T2 sequence (P30542 1-326): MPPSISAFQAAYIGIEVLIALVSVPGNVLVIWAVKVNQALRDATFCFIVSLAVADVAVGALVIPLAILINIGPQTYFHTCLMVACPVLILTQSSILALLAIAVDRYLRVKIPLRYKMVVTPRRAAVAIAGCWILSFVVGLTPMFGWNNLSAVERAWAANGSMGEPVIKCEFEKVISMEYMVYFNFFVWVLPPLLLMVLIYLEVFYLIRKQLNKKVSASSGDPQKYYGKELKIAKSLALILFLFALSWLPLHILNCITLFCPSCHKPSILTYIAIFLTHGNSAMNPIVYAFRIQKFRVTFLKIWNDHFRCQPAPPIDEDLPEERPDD

T1 sequence (P29274 whole entry): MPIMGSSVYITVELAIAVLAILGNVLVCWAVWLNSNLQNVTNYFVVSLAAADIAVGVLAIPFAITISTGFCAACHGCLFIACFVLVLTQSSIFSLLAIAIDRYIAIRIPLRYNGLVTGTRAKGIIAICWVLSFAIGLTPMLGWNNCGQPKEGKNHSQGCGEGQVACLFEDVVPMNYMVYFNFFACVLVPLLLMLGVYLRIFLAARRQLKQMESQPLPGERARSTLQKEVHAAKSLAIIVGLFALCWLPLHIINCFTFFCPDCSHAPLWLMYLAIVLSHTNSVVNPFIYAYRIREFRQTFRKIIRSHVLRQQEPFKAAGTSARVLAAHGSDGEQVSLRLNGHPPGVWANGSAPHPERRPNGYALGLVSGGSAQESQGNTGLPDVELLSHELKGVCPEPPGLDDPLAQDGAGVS

Q: How did the Ki [1] turn out when `Nc1nc2c(cnn2CCCc2ccc(OCCF)cc2)c2nc(-c3ccco3)nn12` [FESCH] was run?
A: The Ki was 0.6 ± 0.1 nM.

Q: What about the Ki [2] of the same compound?
A: The Ki was 203 ± 40 nM.
